Drawing on patent publication US11390609B2, “Rho-associated protein kinase inhibitor, pharmaceutical composition comprising same, and preparation method and use thereof” (BEIJING TIDE PHARMACEUTICAL CO., LTD., priority 2017, dated 2022), this text covers IC50 for 28 compounds.

pIC50: −log10 of the molar value. A value given as a limit tells only on which side of the number the result lay.

The first experiment addresses ROCK2 (Homo sapiens, UniProt O75116). Kind of experiment: ROCK2 kinase IC50 assay (CISBIO HTRF KinEASE-STK S2 kit). To be noted: incubated at room temperature for 2 hours. In kind it is biochemical. As for the experimental part:
The kinase IC50 was determined by a commercialized CISBIO kinase detection kit, HTRF KinEASE-STK S2 kit (62ST2PEC). ROCK2 (01-119) employed in the reaction was purchased from Carna Biosciences.
Before the assay, the following working solutions as needed were formulated with corresponding reagents according to the instruction of the kinase detection kit: 1×kinase buffer, 5×STK-52 substrate working solution (1.5 μM) and 5×ATP working solution (1.5 μM), 5×ROCK2 kinase working solution, 4×Streptavidin-XL665 working solution, and 4×STK-Ab-Cryptate 2 detection solution. Then the assay was performed according to the following procedure.
A solution of a compound at a concentration of 10000 nM was prepared with the 1×kinase buffer containing 2.5% DMSO. Gradient dilution of the solution of the compound was performed with the kinase buffer containing DMSO, so as to obtain solutions of a test compound at 9 different concentrations. In addition to wells of test compounds, a positive well (containing all the reagents except the compound) and a negative well (containing all the reagents except the test compound and kinase) were set. Except for the control wells (positive and negative wells), a solution of a test compound (4 μL) was added to each of the reaction wells, and a solution of 2.5% DMSO was added to the control wells. Then the substrate ([…], 2 μL. 5×STK-S2 substrate working solution) was added to each of the reaction wells. The 5×ROCK2 kinase working solution (2 μL, containing 1.4 ng ROCK2 kinase) was added to each of the reaction wells except for the negative well, the volume of which was made up with the 1×kinase buffer (2 μL). The 5×ATP working solution (2 μL) was added to each of the reaction wells, and the mixtures were incubated at room temperature for 2 hours. After the kinase reaction was complete, the 4×Streptavidin-XL665 working solution was added to each of the reaction wells, the solutions were mixed, followed by immediate addition of the 4×STK-Ab-Cryptate 2 detection solution (5 μL), and the mixtures were incubated at room temperature for 1 hour. The fluorescence signal was read on ENVISION (Perkinelmer) (excitation wavelength: 320 nm, and emission wavelength: 665 nm and 615 nm). The inhibitory rate in each well was calculated based on the fluorescence intensity value: ER (Emission Ratio)=(fluorescence intensity at 665 nm/fluorescence intensity at 615 nm); inhibitory rate=(ERpositive−ERtest compound)/(ERpositive−ERnegative)*100%. Curves were plotted and fitted to obtain the median inhibitory concentration (IC50) of each teat compound with the PRISM 5.0 software.
A general note: TR-FRET usually uses a lanthanide donor and a delayed reading to cut background.
The pIC50 is the negative decadic logarithm of the IC50, by convention in mol/L. A low value points to a high IC50. Take `CC(C)NC(=O)c1cc2ccc(-c3nc(Nc4ccc(-c5cn[nH]c5)cc4)cc(OCCN(C)C)n3)cc2[nH]1` [TDI01865, 6-(4-((4-(1H-pyrazol-4-yl)phenyl)amino)-6-(2-(dimethylami-no)ethoxy)pyrimidin-2-yl)-N-isopropyl-1H-indole-2-carboxamide]: the pIC50 was 6.40.
Still for that read-out and setting: the result for `CN(C)C(=O)c1cc2ccc(-c3nc(Nc4ccc5[nH]ncc5c4)c4sccc4n3)cc2[nH]1` [TDI01406, 6-(4-((1H-indazol-5-yl)amino)-thieno[3,2-d]pyrimidin-2-yl)-N,N-dimethyl-1H-indole-2-carboxamide] reads 6.55; that for `C[C@@H](NC(=O)c1cc2ccc(-c3nccc(Nc4ccc5[nH]ncc5c4)n3)cc2[nH]1)c1ccncc1` [TDI01849, (R)-6-(4-((1H-indazol-5-yl)amino)-pyrimpidin-2-yl)-N-(1-(pyridin-4-yl)ethyl)-1H-indole-2-carboxamide], 6.88; that for `O=C(NC1CCN(c2ccncc2)CC1)c1cc2ccc(-c3nccc(Nc4ccc5[nH]ncc5c4)n3)cc2[nH]1` [TDI01814, 6-(4-((1H-indazol-5-yl)amino)-pyrimidin-2-yl)-N-(1-(pyridin-4-yl)piperidin-4-yl)-1H-indole-2-carboxamide], 7.74.

In the next experiment the target is ROCK1 (Homo sapiens (Human), UniProt Q13464). In words: ROCK1 kinase IC50 assay (biological test method similar to the ROCK2 assay).
Sequence of ROCK1 (Q13464 whole entry, species assumed): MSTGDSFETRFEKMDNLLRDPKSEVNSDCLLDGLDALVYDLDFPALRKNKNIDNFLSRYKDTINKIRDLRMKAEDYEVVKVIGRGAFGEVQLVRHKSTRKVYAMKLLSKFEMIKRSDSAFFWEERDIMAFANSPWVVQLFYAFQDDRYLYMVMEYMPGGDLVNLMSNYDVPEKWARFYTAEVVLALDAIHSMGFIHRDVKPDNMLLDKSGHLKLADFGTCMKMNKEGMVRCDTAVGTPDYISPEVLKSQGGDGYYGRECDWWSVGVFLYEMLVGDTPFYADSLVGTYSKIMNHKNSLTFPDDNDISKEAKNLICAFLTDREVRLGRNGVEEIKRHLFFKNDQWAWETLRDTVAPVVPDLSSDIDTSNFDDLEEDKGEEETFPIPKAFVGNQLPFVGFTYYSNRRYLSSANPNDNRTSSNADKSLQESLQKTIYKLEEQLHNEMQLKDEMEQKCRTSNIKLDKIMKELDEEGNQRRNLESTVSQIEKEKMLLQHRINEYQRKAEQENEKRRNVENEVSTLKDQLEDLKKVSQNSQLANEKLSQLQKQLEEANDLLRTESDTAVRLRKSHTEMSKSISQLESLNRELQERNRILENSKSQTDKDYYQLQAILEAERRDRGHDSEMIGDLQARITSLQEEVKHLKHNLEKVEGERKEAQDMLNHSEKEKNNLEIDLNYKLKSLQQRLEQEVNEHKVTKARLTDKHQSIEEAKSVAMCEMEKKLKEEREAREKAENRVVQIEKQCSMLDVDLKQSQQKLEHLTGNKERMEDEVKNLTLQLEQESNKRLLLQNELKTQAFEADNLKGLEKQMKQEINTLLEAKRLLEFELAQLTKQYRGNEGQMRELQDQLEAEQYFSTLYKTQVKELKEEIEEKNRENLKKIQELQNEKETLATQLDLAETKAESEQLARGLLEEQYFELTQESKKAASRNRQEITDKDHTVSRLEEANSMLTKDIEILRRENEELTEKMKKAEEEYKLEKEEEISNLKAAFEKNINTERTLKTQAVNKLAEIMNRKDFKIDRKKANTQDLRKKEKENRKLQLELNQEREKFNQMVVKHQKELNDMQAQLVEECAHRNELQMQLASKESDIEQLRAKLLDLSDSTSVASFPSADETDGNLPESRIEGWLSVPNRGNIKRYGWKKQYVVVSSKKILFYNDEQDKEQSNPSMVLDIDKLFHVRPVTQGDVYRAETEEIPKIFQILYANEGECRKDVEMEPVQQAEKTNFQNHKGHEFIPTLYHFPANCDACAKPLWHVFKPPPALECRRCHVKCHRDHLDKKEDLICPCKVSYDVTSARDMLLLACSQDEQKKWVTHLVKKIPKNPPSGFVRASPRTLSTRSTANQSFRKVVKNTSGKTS
Conditions: not given
It is filed as biochemical. Summed up:
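HTRF KinEASE-STK S2 assay with the STK-S2 biotinylated substrate and ATP, at 5× working solutions of 1.5 µM each. Kinase reaction with 9-point compound dilutions ran 2 h at room temperature, followed by 1 h streptavidin-XL665/Cryptate detection. The 665/615 nm ratio was normalised to no-compound and no-kinase wells, and IC50 was obtained by curve fitting.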
As to `CC(C)NC(=O)c1cc2ccc(-c3nccc(Nc4ccc(-c5cn[nH]c5)cc4)n3)cc2[nH]1` [TDI01280, 6-(4-((4-(1H-pyrazol-4-yl)phenyl)ami-no)pyrimidin-2-yl)-N-isopropyl-1H-indole-2-carboxamide], the pIC50 is 5.99.
On to `O=C(Nc1ccncc1Cl)c1cc2ccc(-c3nccc(Nc4ccc(-c5cn[nH]c5)cc4)n3)cc2[nH]1` [TDI01354, 6-(4-((4-(1H-pyrazol-4-yl)phenyl)-amino)-pyrimidin-2-yl)-N-(3-chloropyridin-4-yl)-1H-indole-2-caiboxamide], for which the pIC50 is < 5.00.
`CNC(=O)c1cc2ccc(-c3nccc(Nc4ccc(-c5cn[nH]c5)cc4)n3)cc2[nH]1` [TDI01296, 6-(4-((4-(1H-pyrazol-4-yl)phenyl)-amino)-pyrimidin-2-yl)-N-methyl-1H-indole-2-carboxamide]: the pIC50 was 5.54.
Same read-out and setting: the result for `CC(C)NC(=O)C1Cc2ccc(-c3nccc(Nc4ccc5[nH]ncc5c4)n3)cc2N1` (stereo not shown) [TDI01292, 6-(4-((1H-indazol-5-yl)amino)-pyrimidin-2-yl)-N-isopropyl-indoline-2-carboxamide] reads 5.32.
In the case of `CC(CO)NC(=O)c1cc2ccc(-c3nccc(Nc4ccc5[nH]ncc5c4)n3)cc2[nH]1` (stereo not shown) [TDI01176, 6-(4-((1H-indazol-5-yl)amino)-pyrimidin-2-yl)-N-(1-hydroxypropan-2-yl)-1H-indole-2-carboxamide], the pIC50 was 6.28.
Regarding `O=C(Nc1ccnnc1)c1cc2cc(-c3nccc(Nc4ccc5[nH]ncc5c4)n3)ccc2[nH]1` [TDI01188, 5-(4-((1H-indazol-5-yl)amino)-pyrimidin-2-yl)-N-(pyridazin-4-yl)-1H-indole-2-carboxamide], the pIC50 is 5.89.
The compound `CN(C)c1cnccc1NC(=O)c1cc2ccc(-c3nccc(Nc4ccc5[nH]ncc5c4)n3)cc2[nH]1` [TDI01289, 6-(4-((1H-indazol-5-yl)amino)-pyrimidin-2-yl)-N-(3-(dimethylamino)-pyridin-4-yl)-1H-indole-2-carboxamide] gave a pIC50 of 6.01. This pIC50 and that of the compound before are within 0.2 log units of each other.
Still for that read-out and setting: the figure for `Cn1c(C(=O)N2CC(F)(F)C2)cc2ccc(-c3nccc(Nc4ccc(-c5cn[nH]c5)cc4)n3)cc21` [TDI01470, (6-(4-((4-(1H-pyrazol-4-yl)phenyl)amino)pyrimidin-2-yl)-1-methyl-1H-indol-2-yl)(3,3-difluoroazetidin-1-yl)methanone] is < 5.00; for `CNC(=O)c1cc2ccc(-c3nc(Nc4ccc(-c5cn[nH]c5)cc4)c4sccc4n3)cc2[nH]1` [TDI01379, 6-(4-((4-(1H-pyrazol-4-yl)phenyl)-amino)thieno-[3.2-d]-pyrimidin-2-yl)-N-methyl-1H-indole-2-carboxamide] it is < 5.00; for `CNC(=O)c1cc2ccc(-c3nccc(Nc4ccc5[nH]ncc5c4)n3)cc2s1` [TDI01109, 6-(4-((1H-indazol-5-yl)amino)pyrimidin-2-yl)-N-methylben-zo[b]thiophene-2-carboxamide] it is < 5.00.
Same read-out and setting: the figure for `CN(CC(F)(F)F)C(=O)c1cc2ccc(-c3nccc(Nc4ccc(-c5cn[nH]c5)cc4)n3)cc2[nH]1` [TDI01355, 6-(4-((4-(1H-pyrazol-4-yl)phenyl)-amino)-pyrimidin-2-yl)-N-methyl-N-(2,2,2-trifluoroethyl)-1H-indole-2-carboxamide] is < 5.00.
As for `O=C(Nc1ccncc1)c1cc2ccc(-c3nccc(Nc4ccc(-c5cn[nH]c5)cc4)n3)cc2s1` [TDI01393], the pIC50 is < 5.00.
`O=C(Nc1ccncn1)c1cc2ccc(-c3nccc(Nc4ccc5[nH]ncc5c4)n3)cc2[nH]1` [TDI01161, 6-(4-((1H-indazol-5-yl)amino)-pyrimidin-2-yl)-N-(pyrimidin-4-yl)-1H-indole-2-carboxamide]: the negative-log IC50 (pIC50) is < 5.00.
In the case of `O=C(c1cc2ccc(-c3nccc(Nc4ccc(-c5cn[nH]c5)cc4)n3)cc2[nH]1)N1CCO[C@@H](CO)C1` [TDI01852], the pIC50 was < 5.00.
Consider `O=C(Nc1cnccn1)c1cc2ccc(-c3nccc(Nc4ccc5[nH]ncc5c4)n3)cc2[nH]1` [TDI01160, 6-(4-((1H-indazol-5-yl)amino)pyrimidin-2-yl)-N-(pyrazin-2-yl)-1H-indole-2-carboxamide], for which the pIC50 is 5.65.
`O=C(Nc1ccc2[nH]ncc2c1)c1cc2ccc(-c3nccc(Nc4ccc5[nH]ncc5c4)n3)cc2[nH]1` [TDI01182, 6-(4-((1H-indazol-5-yl)amino)-pyrimidin-2-yl)-N-(1H-indazol-5-yl)-1H-indole-2-carboxamide] had a pIC50 of 6.15.
Take `CN(C)C(=O)c1cc2ccc(-c3nccc(Nc4ccc(-c5cn[nH]c5)cc4)n3)cc2[nH]1` [TDI01294, 6-(4-((4-(1H-pyrazol-4-yl)phenyl)-amino)-pyrimidin-2-yl)-N,N-dimethyl-1H-indole-2-carboxamide]: the negative-log IC50 (pIC50) is < 5.00.
With `CN(C(=O)c1cc2ccc(-c3nccc(Nc4ccc(-c5cn[nH]c5)cc4)n3)cc2[nH]1)C1CCNC1` (stereo not shown) [TDI01345, 6-(4-((4-(1H-pyrazol-4-yl)phenyl)-amino)-pyrimidin-2-yl)-N-methyl-N-(pyrrolidin-3-yl)-1H-indole-2-carboxamide], the pIC50 was 5.41.
Consider `N#CC1CN(C(=O)c2cc3ccc(-c4nccc(Nc5ccc(-c6cn[nH]c6)cc5)n4)cc3[nH]2)C1` [TDI01398, 1-(6-(4-((4-(1H-pyrazol-4-yl)phenyl)-amino)-pyrimidin-2-yl)-1H-indole-2-carbonyl)-azetidine-3-carbonitrile], for which the negative-log IC50 (pIC50) is < 5.00.
For the compound `CC(C)NC(=O)c1cc2ccc(-c3nc(Nc4ccc5[nH]ncc5c4)c4sccc4n3)cc2s1` [TDI01136, 6-(4-((1H-indazol-5-yl)amino)thieno[3,2-d]pyrimidin-2-yl)-N-isopropylben-zo[b]thiophene-2-carboxamide], the pIC50 was 6.08.
For the compound `CN(C)C(=O)c1cc2ccc(-c3nccc(Nc4ccc5[nH]ncc5c4)n3)cc2s1` [TDI01110, 6-(4-((1H-indazol-5-yl)amino)pyrimidin-2-yl)-N, N-dimethylben-zo[b]thiophene-2-carboxamide], the pIC50 was < 5.00.
Regarding `CN1CCC(n2cc(NC(=O)c3cc4ccc(-c5nccc(Nc6ccc7[nH]ncc7c6)n5)cc4[nH]3)cn2)CC1` [TDI01316, 6-(4-((1H-indazol-5-yl)amino)-pyrimidin-2-yl)-N-(1-(1-methyl-piperidin-4-yl)-1H-pyrazol-4-yl)-1H-indole-2-carboxamide], the pIC50 was 6.00.
On to `O=C(Nc1ccnnc1)c1ccc2ccc(-c3nccc(Nc4ccc5[nH]ncc5c4)n3)cc2n1` [TDI01236, 7-(4-((1H-indazol-5-yl)ami-no)pyrimidin-2-yl)-N-(pyridazin-4-yl)quinoline-2-carboxamide], for which the negative logarithm of the IC50 (pIC50) is < 5.00.
In the case of `CN(CC#N)C(=O)c1cc2ccc(-c3nccc(Nc4ccc(-c5cn[nH]c5)cc4)n3)cc2[nH]1` [TDI01430, 6-(4-((4-(1H-pyrazol-4-yl)phenyl)amino)pyrimidin-2-yl)-N-(cyanomethyl)-N-methyl-1H-indole-2-carboxamide], the pIC50 was < 5.00.
